From patent publication US12180193B2, “Accelerating fibrosarcoma protein degrading compounds and associated methods of use” (Arvinas Operations, Inc., priority 2020, dated 2024)

Assays:
BRAF V600E = molecular target: T1, BRAF V600E (Homo sapiens, UniProt P15056, V600E); assay: Cellular assay of target protein degradation, T-Rex 293 cells stably transfected with HA-BRAF_V600E (HA immunofluorescence, high content imaging); format: cell-based; settings: T-Rex 293 HA-BRAF V600E; for DC50: half maximal degradation, read-out: BRaf V600E DC50; for Dmax: maximum degradation observed
T1 construct: expressed in transfected cells
In short: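 Doxycycline-induced (1 ng/mL) T-Rex 293 cells expressing HA-BRAF V600E treated 24 h at 37 °C with compound at 1 μM to 0.1 nM final in 0.1% DMSO. Remaining HA-tagged protein quantified by fixed-cell anti-HA immunofluorescence and high-content imaging; DC50 and Dmax (% of control) derived.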

BRAF G466V = molecular target: T2, BRAF G466V (Homo sapiens, UniProt P15056, G466V); assay: Cellular assay of target protein degradation, T-Rex 293 cells stably transfected with HA-BRAF G466V (HA immunofluorescence, high content imaging); format: cell-based; settings: T-Rex 293 HA-BRAF G466V; for DC50: half maximal degradation, read-out: BRaf G466V DC50; for Dmax: maximum degradation observed
T2 construct: expressed in transfected cells
In short: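 Doxycycline-induced (0.75 ng/mL) cells treated 24 h at 37 °C with compound from 30 nM to 3 pM (0.1% DMSO). After fixation and permeabilisation, HA-tagged BRAF G466V immunostained and quantified by high-content imaging. DC50 and Dmax (percent of control) derived.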

T1 sequence (P15056 whole entry V600E): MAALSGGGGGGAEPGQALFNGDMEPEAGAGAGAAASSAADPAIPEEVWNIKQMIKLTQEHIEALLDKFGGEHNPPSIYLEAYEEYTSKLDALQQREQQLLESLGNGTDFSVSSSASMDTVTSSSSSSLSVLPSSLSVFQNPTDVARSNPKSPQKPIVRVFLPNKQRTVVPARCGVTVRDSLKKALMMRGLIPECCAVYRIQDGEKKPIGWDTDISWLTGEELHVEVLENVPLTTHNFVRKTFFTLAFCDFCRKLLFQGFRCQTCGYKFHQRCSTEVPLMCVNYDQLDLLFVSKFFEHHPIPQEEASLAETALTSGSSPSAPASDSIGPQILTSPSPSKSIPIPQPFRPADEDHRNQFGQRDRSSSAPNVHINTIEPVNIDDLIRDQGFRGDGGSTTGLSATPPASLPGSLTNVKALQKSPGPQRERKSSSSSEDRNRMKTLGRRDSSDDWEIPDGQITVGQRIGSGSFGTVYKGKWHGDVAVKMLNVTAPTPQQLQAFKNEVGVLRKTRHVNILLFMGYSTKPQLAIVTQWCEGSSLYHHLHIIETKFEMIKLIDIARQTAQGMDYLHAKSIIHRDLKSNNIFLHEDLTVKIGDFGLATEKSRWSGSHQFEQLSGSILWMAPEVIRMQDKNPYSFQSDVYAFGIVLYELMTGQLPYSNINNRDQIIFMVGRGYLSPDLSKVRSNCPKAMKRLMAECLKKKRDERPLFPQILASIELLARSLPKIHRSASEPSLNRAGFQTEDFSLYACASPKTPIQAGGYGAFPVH
T2 sequence (P15056 whole entry G466V): as the sequence (P15056 whole entry V600E) above, with G466V, E600V counted along it

DC50 (BRAF V600E) [nM] | Dmax (BRAF V600E) [%] | DC50 (BRAF G466V) [nM] | Dmax (BRAF G466V) [%] | SMILES
5 to 50 | 35 to 70 | 1 to 10 | > 70 | O=C1CC[C@H](N2Cc3cc(OC[C@@H](O)CN4CC5(C4)CN(c4ccc(-c6cnc7[nH]cc(C(=O)c8c(F)ccc(NS(=O)(=O)N9CC[C@@H](F)C9)c8F)c7c6)cc4)C5)ccc3C2=O)C(=O)N1 [Compound 165, (3R)-N-{3-[5-(4-{6-[(2S)-3-({2-[(3S)-2,6-dioxopiperidin-3-yl]-1-oxo-2,3-dihydro-1H-isoindol-5-yl}oxy)-2-hydroxypropyl]-2,6-diazaspiro[3.3]heptan-2-yl}phenyl)-1H-pyrrolo[2,3-b]pyridine-3-carbonyl]-2,4-difluorophenyl}-3-fluoropyrrolidine-1-sulfonamide]
5 to 50 | 35 to 70 | 1 to 10 | > 70 | O=C1CCC(N2Cc3cc(N4CCN(CCCC5CCN(c6ccc(-c7cnc8[nH]cc(C(=O)c9c(F)ccc(NS(=O)(=O)N%10CC[C@@H](F)C%10)c9F)c8c7)cc6)CC5)CC4)ccc3C2=O)C(=O)N1 (stereo partly drawn) [Compound 135, (3R)-N-[3-(5-{4-[4-(3-{4-[2-(2,6-dioxopiperidin-3-yl)-1-oxo-2,3-dihydro-1H-isoindol-5-yl]piperazin-1-yl}propyl)piperidin-1-yl]phenyl}-1H-pyrrolo[2,3-b]pyridine-3-carbonyl)-2,4-difluorophenyl]-3-fluoropyrrolidine-1-sulfonamide]
5 to 50 | 35 to 70 | 1 to 10 | > 70 | N#Cc1cc(-c2cnc3[nH]cc(C(=O)c4c(F)ccc(NS(=O)(=O)N5CC[C@@H](F)C5)c4F)c3c2)cc(C#N)c1N1CCC(CN2CCC(c3ccc4c(c3)CN(C3CCC(=O)NC3=O)C4=O)CC2)CC1 (stereo partly drawn) [Compound 261, (3R)-N-[3-(5-{3,5-dicyano-4-[4-({4-[2-(2,6-dioxopiperidin-3-yl)-1-oxo-2,3-dihydro-1H-isoindol-5-yl]piperidin-1-yl}methyl)piperidin-1-yl]phenyl}-1H-pyrrolo [2,3-b]pyridine-3-carbonyl)-2,4-difluorophenyl]-3-fluoropyrrolidine-1-sulfonamide]
5 to 50 | 35 to 70 | 1 to 10 | 35 to 70 | N#Cc1cc(-c2cnc3[nH]cc(C(=O)c4c(F)ccc(NS(=O)(=O)N5CC[C@@H](F)C5)c4F)c3c2)cc(C#N)c1N1CCC(CN2CCC(c3ccc4c(c3)CN([C@H]3CCC(=O)NC3=O)C4=O)CC2)CC1 [Compound 260, (3R)-N-{3-[5-(3,5-dicyano-4-{4-[(4-{2-[(3S)-2,6-dioxopiperidin-3-yl]-1-oxo-2,3-dihydro-1H-isoindol-5-yl}piperidin-1-yl)methyl]piperidin-1-yl}phenyl)-1H-pyrrolo [2,3-b]pyridine-3-carbonyl]-2,4-difluorophenyl}-3-fluoropyrrolidine-1-sulfonamide]
> 500 | – | > 30 | – | CN1C(=O)CCC(N2Cc3cc(C4CCN(CC5CCN(c6ccc(-c7cnc8[nH]cc(C(=O)c9c(F)ccc(NS(=O)(=O)N%10CC[C@@H](F)C%10)c9F)c8c7)cc6)CC5)CC4)ccc3C2=O)C1=O (stereo partly drawn) [Compound 169, (3R)-N-[2,4-difluoro-3-(5-{4-[4-({4-[2-(1-methyl-2,6-dioxopiperidin-3-yl)-1-oxo-2,3-dihydro-1H-isoindol-5-yl]piperidin-1-yl}methyl)piperidin-1-yl]phenyl}-1H-pyrrolo[2,3-b]pyridine-3-carbonyl)phenyl]-3-fluoropyrrolidine-1-sulfonamide]
5 to 50 | 35 to 70 | < 1 | > 70 | COc1cc(N2CC3(CN(CC4CCN(c5ccc(-c6cnc7[nH]cc(C(=O)c8c(F)ccc(NS(=O)(=O)N9CC[C@@H](F)C9)c8F)c7c6)cn5)CC4)C3)C2)cc2c1C(=O)N(C1CCC(=O)NC1=O)C2 (stereo partly drawn) [Compound 133, (3R)-N-[3-(5-{6-[4-({6-[2-(2,6-dioxopiperidin-3-yl)-7-methoxy-1-oxo-2,3-dihydro-1H-isoindol-5-yl]-2,6-diazaspiro[3.3]heptan-2-yl}methyl)piperidin-1-yl]pyridin-3-yl}-1H-pyrrolo[2,3-b]pyridine-3-carbonyl)-2,4-difluorophenyl]-3-fluoropyrrolidine-1-sulfonamide]
5 to 50 | 35 to 70 | 1 to 10 | 35 to 70 | CN(CCO)S(=O)(=O)Nc1ccc(F)c(C(=O)c2c[nH]c3ncc(-c4ccc(N5CCC(CN6CCC(c7ccc8c(c7)CN([C@H]7CCC(=O)NC7=O)C8=O)CC6)CC5)cc4)cc23)c1F [Compound 280, (3S)-3-(5-{1-[(1-{4-[3-(2,6-difluoro-3-{[(2-hydroxyethyl)(methyl)sulfamoyl]amino}benzoyl)-1H-pyrrolo[2,3-b]pyridin-5-yl]phenyl}piperidin-4-yl)methyl]piperidin-4-yl}-1-oxo-2,3-dihydro-1H-isoindol-2-yl) piperidine-2,6-dione]
5 to 50 | 35 to 70 | 1 to 10 | > 70 | O=C1CC[C@H](N2Cc3cc(CC[C@@H](O)CN4CC5(C4)CN(c4ccc(-c6cnc7[nH]cc(C(=O)c8c(F)ccc(NS(=O)(=O)N9CC[C@@H](F)C9)c8F)c7c6)cc4)C5)ccc3C2=O)C(=O)N1 [Compound 327, (3R)-N-{3-[5-(4-{6-[(2R)-4-{2-[(3)S-2,6-dioxopiperidin-3-yl]-1-oxo-2,3-dihydro-1H-isoindol-5-yl}-2-hydroxybutyl]-2,6-diazaspiro[3.3]heptan-2-yl}phenyl)-1H-pyrrolo[2,3-b]pyridine-3-carbonyl]-2,4-difluorophenyl}-3-fluoropyrrolidine-1-sulfonamide]
> 500 | – | > 30 | – | CCc1ccc(NS(=O)(=O)N2CC[C@@H](F)C2)c(F)c1C(=O)c1c[nH]c2ncc(-c3ccc(N4CCC(CN5CCC(c6ccc7c(c6)CN(C6CCC(=O)NC6=O)C7=O)CC5)CC4)cc3)cc12 (stereo partly drawn) [Compound 266, (3R)-N-[3-(5-{4-[4-({4-[2-(2,6-dioxopiperidin-3-yl)-1-oxo-2,3-dihydro-1H-isoindol-5-yl]piperidin-1-yl}methyl)piperidin-1-yl]phenyl}-1H-pyrrolo[2,3-b]pyridine-3-carbonyl)-4-ethyl-2-fluorophenyl]-3-fluoropyrrolidine-1-sulfonamide]
5 to 50 | 35 to 70 | 1 to 10 | > 70 | CNc1cc(-c2cnc3[nH]cc(C(=O)c4c(F)ccc(NS(=O)(=O)N5CC[C@@H](F)C5)c4F)c3c2)cc(NC)c1N1CCC(CN2CCC(c3ccc4c(c3)CN([C@H]3CCC(=O)NC3=O)C4=O)CC2)CC1 [Compound 284, (3R)-N-{3-[5-(4-{4-[(4-{2-[(3S)-2,6-dioxopiperidin-3-yl]-1-oxo-2,3-dihydro-1H-isoindol-5-yl}piperidin-1-yl)methyl]piperidin-1-yl}-3,5-bis(methylamino)phenyl)-1H-pyrrolo[2,3-b]pyridine-3-carbonyl]-2,4-difluorophenyl}-3-fluoropyrrolidine-1-sulfonamide]
5 to 50 | 35 to 70 | < 1 | > 70 | CCCS(=O)(=O)Nc1ccc(F)c(C(=O)c2c[nH]c3ncc(-c4ccc(N5CC6(CN(CC7CCN(c8cc9c(c(OC)c8)C(=O)N([C@H]8CCC(=O)NC8=O)C9)CC7)C6)C5)cc4)cc23)c1F [Compound 237, N-{3-[5-(4-{6-[(1-{2-[(3S)-2,6-dioxopiperidin-3-yl]-7-methoxy-1-oxo-2,3-dihydro-1H-isoindol-5-yl}piperidin-4-yl)methyl]-2,6-diazaspiro[3.3]heptan-2-yl}phenyl)-1H-pyrrolo[2,3-b]pyridine-3-carbonyl]-2,4-difluorophenyl}propane-1-sulfonamide]
> 500 | – | < 1 | 35 to 70 | O=C1CCC(N2Cc3cc(N4CCC(CN5CCC6(CCN(c7ccc(-c8cnc9[nH]cc(C(=O)c%10c(F)ccc(NS(=O)(=O)N%11CC[C@@H](F)C%11)c%10F)c9c8)cn7)CC6)C5)CC4)ccc3C2=O)C(=O)N1 (stereo partly drawn) [Compound 95, (3R)-N-[3-(5-{6-[2-({1-[2-(2,6-dioxopiperidin-3-yl)-1-oxo-2,3-dihydro-1H-isoindol-5-yl]piperidin-4-yl}methyl)-2,8-diazaspiro[4.5]decan-8-yl]pyridin-3-yl}-1H-pyrrolo[2,3-b]pyridine-3-carbonyl)-2,4-difluorophenyl]-3-fluoropyrrolidine-1-sulfonamide]
50 to 500 | 35 to 70 | 1 to 10 | < 35 | O=C1CCC(N2Cc3cc(C4CCN(CC5CCN(c6ccc(-c7cnc8[nH]cc(C(=O)c9c(Cl)ccc(NS(=O)(=O)N%10CC[C@@H](F)C%10)c9Cl)c8c7)cc6)CC5)CC4)ccc3C2=O)C(=O)N1 (stereo partly drawn) [Compound 268, (3R)-N-[2,4-dichloro-3-(5-{4-[4-({4-[2-(2,6-dioxopiperidin-3-yl)-1-oxo-2,3-dihydro-1H-isoindol-5-yl]piperidin-1-yl}methyl)piperidin-1-yl]phenyl}-1H-pyrrolo [2,3-b]pyridine-3-carbonyl)phenyl]-3-fluoropyrrolidine-1-sulfonamide]
5 to 50 | 35 to 70 | 1 to 10 | > 70 | COc1cc(N2CC3(CN(CCc4ccc(-c5cnc6[nH]cc(C(=O)c7c(F)ccc(NS(=O)(=O)N8CC[C@@H](F)C8)c7F)c6c5)cc4)C3)C2)ccc1C(=O)N[C@H]1CCC(=O)NC1=O [Compound 361, 4-{6-[2-(4-{3-[2,6-difluoro-3-({[(3R)-3-fluoropyrrolidin-1-yl]sulfonyl}amino)benzoyl]-1H-pyrrolo[2,3-b]pyridin-5-yl}phenyl)ethyl]-2,6-diazaspiro[3.3]heptan-2-yl}-N-[(3S)-2,6-dioxopiperidin-3-yl]-2-methoxybenzamide]
